Here are results for six compounds from patent publication US20220304309A1, “IRON COMPLEXES AND USES THEREFOR” (priority 2019, published 2022).

“Also recorded” adds a separate entry of the source. Like-named read-outs stand apart in the source and are kept apart here.

One data set deals with Bacillus subtilis. The data set can be described thus: Bactericidal and sporicidal activity on Bacillus subtilis cells or spores suspended in water. The following applies: increasing concentrations and exposure times; 10 mM sodium ascorbate, sub-inhibitory hydrogen peroxide. The class given is cell-based. As for the experimental part: Because of its activity as a Fenton reagent, FDP produces reactive oxygen species (e.g. hydroxyl radicals, superoxide radicals) that are toxic to bacterial spores and spore-forming bacteria. […] After exposure to FDP for various periods of time, the number of viable colony-forming units is determined by plating aliquots of serial dilutions of the solutions.

A short description of data set [1]: Fenton activity test with H2O2 and methylene blue.
A short description of data set [2]: Total, ferrous and ferric iron content of the complexes immediately after preparation (1,10-phenanthroline). The note with it: 50 mM solution; for Ferric iron: total minus ferrous.
Data set [3] in a line: Stability of ferrous iron complexes in solution over 180 days. The following applies: for Ferrous iron / Total iron: room temperature in the dark; for Stability of solutions of the complex: stored at ambient temperature (TFDC in the dark).
The next data set relates to C. liberibacter spp. It counts as in vivo, rough lemon trees. The note with it: 50 μM, foliar or root drench, every three days over three months.
The next data set deals with X. campestris. The following applies: for A600: 36 hours at 28° C.
Another data set relates to spores of B. subtilis. The data set can be described thus: Decontamination of surfaces contaminated with B. subtilis spores. The class given is cell-based, Bacillus subtilis. The following applies: swabbing or spraying, optionally mixed with ascorbate and/or hydrogen peroxide. On the procedure: In additional experiments, surfaces that have been intentionally contaminated with spores of B. subtilis are wiped or sprayed with solutions of FDP (e.g., 1 mM, 2 mM, 3 mM, 4 mM, 5 mM, 6 mM, 7 mM, 8 mM, 9 mM, 10 mM, 12.5 mM, 15 mM, 20 mM, 25 mM, 50 mM, 75 mM 100 mM or more); optionally including ascorbate (e.g. 10 mM) and/or hydrogen peroxide at a concentration of, e.g., 1 mM or less, 2 mM or less, 3 mM or less, 4 mM or less, 5 mM or less, 6 mM or less, 7 mM or less, 8 mM or less, 9 mM or less, 10 mM or less, 12.5 mM or less, 15 mM or less, 20 mM or less, 25 mM or less, 30 mM or less, 40 mM or less, 50 mM or less, 60 mM or less, 70 mM or less, 80 mM or less, 90 mM or less, 100 mM or less, 125 mM or less, 150 mM or less, 175 mM or less, or 200 mM or less. The surfaces are then swabbed, the swabs are suspended in water or medium, and CFU are determined by plating aliquots of serial dilutions of the liquid in which the swabs were suspended.

Data set [4] deals with Pectobacterium carotovorum subsp. brasiliense (Pcb). The data set is described as follows: In planta trial on Pcb-infiltrated potato tubers. The note with it: weekly foliar spray or root drench.
Data set [5] can be described thus: Reduction of ferric iron in the ferric tri-pyruvate complex over 10 days. It counts as physicochemical. On the procedure: A 50 mM solution of the ferric tri-pyruvate complex was prepared as described in Example 5. The stability of the complex was measured by determining the total iron, ferrous iron and ferric iron over the course of 10 days.
Where [6] appears, read: 1 ml 50 mM complex + 1 ml 40% H2O2, 0.1% (w/v) methylene blue, 1 hour at ambient temperature.
[7] abbreviates: 60 Days after complex formation.
[8] abbreviates: 180 Days after complex formation.
Where [9] appears, read: 0 days after complex formation, 50 mM solution.
The mark [10] stands for this setting: 1 day after complex formation, 50 mM solution.
The mark [11] stands for this setting: 7 days after complex formation, 50 mM solution.
[12] abbreviates: 10 days after complex formation, 50 mM solution.

As for ferrous di-pyruvate, the “Cell killing of B. subtilis cells or spores (viable CFU)” value in the data set on Bacillus subtilis is reported as “higher levels of cell killing”. For the same compound, the “Fenton activity (loss of blue color, brown precipitate)” value in data set [1] (setting [6]) was “exhibited Fenton activity”; in data set [1] (1 ml 50 mM complex + 1 ml 40% H2O2, 0.1% (w/v) methylene blue, 1 hour at ambient temperature, listed as ferrous di-pyruvate complex) it was “significant Fenton activity”. In addition, the Ferrous iron in data set [2] amounted to 49.5 mM; in [3] (1 Day after complex formation), 99 mM; in data set [3] (setting [7]), 97 mM; in data set [3] (setting [8]), 98 mM. Also, the Total iron is given as 50 mM in data set [2], 100 mM in [3] (1 Day after complex formation), 100 mM in data set [3] (setting [7]) and 100 mM in data set [3] (setting [8]). Besides, the Ferric iron in data set [2] is <1 mM. The “Stability of solutions of the complex” value in data set [3] is on record as “stable for up to six months”. Besides, in the data set on C. liberibacter spp, the “Number of leaf and root samples containing C. liberibacter spp nucleic acid (PCR)” value is “reduces the number of leaf and root samples containing C. liberibacter spp nucleic acid”. Further, in the data set on C. liberibacter spp, the “Number of plants showing signs of chlorosis” value was “reduces the number of plants showing signs of chlorosis”. In the data set with X. campestris (Table 5, most pronounced after preincubation with ascorbate and copper), the “Effect on growth of X. campestris (in words)” value was “able to block the growth of X. campestris”. In addition, in the data set on X. campestris (Table 6, most pronounced after preincubation with ascorbate and copper), the “Killing of X. campestris (in words)” value was “able to kill X. campestris”. Besides, the CFU in the data set on X. campestris (no preincubation, addition 5 mM ascorbate + 5 μM Cu(II) + 0.25 mM FDP, 36 hour treatment) is on record as 2.28 × 10^9 CFU per ml. In addition, the A600 in the data set on X. campestris (no preincubation, addition 5 mM ascorbate + 5 μM Cu(II) + 0.25 mM FDP) stood at 0.420; with X. campestris (no preincubation, addition 5 mM ascorbate + 0.25 mM FDP), 0.447. The “Sterilization of surfaces contaminated with B. subtilis spores” value in the data set on spores of B. subtilis was “sterilizes the surfaces”. In addition, in data set [4], the “Symptoms of Pcb infection in potato plants” value was “reduce symptom of Pcb infection”.

In the case of “ferric tri-pyruvate [ferric tri-pyruvate complex]”, in [1] (14-day old reduced complex, 50 mM + 40% H2O2, 1 hour at ambient temperature), the “Fenton activity (loss of blue color, brown precipitate)” value was “significant Fenton activity”. For the same compound, the Ferric iron in data set [5] (setting [9]) is >49 mM; in [5] (setting [10]) it was 39 mM; in [5] (setting [11]), 2 mM; in data set [5] (setting [12]), 2 mM. Besides, the Ferrous iron in [5] (setting [9]) is given as <1 mM; in data set [5] (setting [10]) it was 11 mM; in [5] (setting [11]), 48 mM; in [5] (setting [12]), 48 mM. The Total iron in [5] (setting [9]), in [5] (setting [10]), in data set [5] (setting [11]) and in data set [5] (setting [12]) was 50 mM throughout. Moreover, the “Oxidation state of the iron upon formation of the complex” value in data set [5] (50 mM solution) was “essentially all the iron was in the ferric oxidation state”. In addition, the “Reduction of ferric ions to ferrous” value is on record as “essentially all iron is in the ferrous oxidation state; also recorded: essentially all the ferric iron was reduced to the ferrous oxidation state” in data set [5] (after one week (7-day period)) and “approximately one-fifth of ferric ions have been reduced to ferrous” in data set [5] (within one day after formation of the complex, ambient conditions).

Take “mono-ferrous mono-citrate [mono-ferrous mono-citrate complex, reference compound]”: the “Fenton activity (loss of blue color, brown precipitate)” value in [1] (setting [6]) is “little to no Fenton activity”.

Turning to `O=C1O[C@H]([C@@H](O)CO)C([O-])=C1O.[Na+]` [ascorbate, sodium ascorbate, reference compound], in the data set with X. campestris (no preincubation, addition 5 mM ascorbate), the A600 is 0.512.

Consider “mono-ferrous di-citrate [mono-ferrous di-citrate complex, reference compound]”, for which, in data set [1] (setting [6]), the “Fenton activity (loss of blue color, brown precipitate)” value is reported as “little to no Fenton activity”.

With `O=C([O-])CC(O)(CC(=O)[O-])C(=O)[O-].O=C([O-])CC(O)(CC(=O)[O-])C(=O)[O-].[Fe+2].[Fe+2].[Fe+2]` [tri-ferrous di-citrate], the “Fenton activity (loss of blue color, brown precipitate)” value in [1] (setting [6]) is “exhibited Fenton activity”; in data set [1] (1 ml 50 mM complex + 1 ml 40% H2O2, 0.1% (w/v) methylene blue, 1 hour at ambient temperature, listed as tri-ferrous di-citrate complex), “significant Fenton activity”. Besides, the Ferrous iron in data set [2] was found to be 49.7 mM; in data set [3] (1 Day after complex formation) it was 100 mM; in [3] (setting [7]), 99 mM; in data set [3] (setting [8]) it was 98 mM. Further, the Total iron in [2] is 50 mM; in data set [3] (1 Day after complex formation), 100 mM; in data set [3] (setting [7]) it was 100 mM; in data set [3] (setting [8]), 100 mM. Further, the Ferric iron in data set [2] is recorded as <1 mM. Further, in data set [3], the “Light sensitivity on storage” value is reported as “must be stored in the dark to prevent autodegradation”. In addition, the “Stability of solutions of the complex” value in [3] is “stable for up to six months”. Further, the “Symptoms of Pcb infection in potato plants” value in data set [4] is listed as “reduce symptom of Pcb infection”.
